Measurements taken from patent US20080214576A1, “Topoisomerase Inhibitors and Prodrugs” (Threshold Pharmaceuticals, Inc., priority 2004, published 2008).
Where two headings read alike, the source gives them in different places.

Test system: H460 cells
Experiment: Antiproliferation assay (multi-well Alamar Blue based)
Type: cell-based, human
Description: To determine the effect of the compounds of the invention on cell proliferation, the antiproliferative activity of these compounds was tested in a multi-well Alamar Blue based assay (at 2 h and 3 days). Cell growth in the presence and absence of the test compound was compared, as measured by a fluorescence plate reader at excitation 550 nm and emission 590 nm (see Biosource International Inc., Tech Application Notes, Use of Alamar Blue in the measurement of Cell Viability and Toxicity, Determining IC50). […] After 24 hours, these plates were divided into 3 groups—Control group, 2 h treatment group, and 3 day treatment group. A test compound was added to each plate in the treatment groups (2 h and 3 day) at various concentration (in 50 μl of medium). In the 2 h treatment group, after 2 h the cells were rinsed to remove the test compound and incubated for 3 days, followed by staining with AlamarBlue. The cells in the 3 day treatment group were incubated for 3 days, followed by staining with AlamarBlue. In the Control group, AlamarBlue was added to the plate at (i) day 0 and (ii) day 3 and measured to establish the control reading.

GI90 (3 day treatment, AlamarBlue, GI90 also referred to as IC90)	GI50 (Homo sapiens, NCI-H460, 72 h, 3 day treatment, AlamarBlue, GI50 also referred to as IC50, read-out: GI50)	GI50 (assay time period not stated)	GI90 (assay time period not stated)	Compound
1 µM	0.6 µM			COc1cc2c(cc1OC)n(CCN(C)C)c(=O)n1c3cc4c(cc3nc21)OCO4 [Compound 14]
		not determinable	not determinable	COc1cc2c(cc1OC)-c1nc3cc4c(cc3n1C(CCCN(C)C)N2)OCO4 (stereo not shown) [Compound 7]
